The values below come from the supplement of paper PMC10307832.

Test in all cases: relative viability (nuclei count vs DMSO), 5 days (fraction); higher = more cells survive
Compound in the assay “GW-2580 + Linsitinib”: COC1=CC=C(C=C1)COC2=C(C=C(C=C2)CC3=CN=C(N=C3N)N)OC [GW-2580] + C[C@]1(O)C[C@@H](c2nc(-c3ccc4ccc(-c5ccccc5)nc4c3)c3c(N)nccn32)C1 [Linsitinib] (partner 1 µM)
The method in brief: (§1)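 Medians of duplicate plates are given as relative viability. That measure is the nuclei count in treated wells divided by the count in vehicle wells. Counts were taken on 4× images of lung cancer cell lines in 1536-well plates, 5 days after pin-tool dosing the day after seeding with one drug alone or a fixed anchor-drug dose plus five library-drug doses (not always all listed) in √10 steps.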

Compound in the assay “Fedratinib + Phenformin”: Cc1cnc(Nc2ccc(OCCN3CCCC3)cc2)nc1Nc1cccc(S(=O)(=O)NC(C)(C)C)c1 [Fedratinib] + N=C(N)NC(=N)NCCc1ccccc1 [Phenformin] (partner 250 µM)
The method in brief:
as §1

Compound in the assay “Fedratinib + Alpelisib”: Cc1cnc(Nc2ccc(OCCN3CCCC3)cc2)nc1Nc1cccc(S(=O)(=O)NC(C)(C)C)c1 [Fedratinib] + Cc1nc(NC(=O)N2CCC[C@H]2C(N)=O)sc1-c1ccnc(C(C)(C)C(F)(F)F)c1 [Alpelisib] (partner 2 µM)
The method in brief: as §1

Compound in the assay “GW-2580 + Olaparib”: COC1=CC=C(C=C1)COC2=C(C=C(C=C2)CC3=CN=C(N=C3N)N)OC [GW-2580] + O=C(c1cc(Cc2n[nH]c(=O)c3ccccc23)ccc1F)N1CCN(C(=O)C2CC2)CC1 [Olaparib] (partner 8 µM)
The method in brief: as §1

Compound in the assay “GW-2580 + Trametinib”: COC1=CC=C(C=C1)COC2=C(C=C(C=C2)CC3=CN=C(N=C3N)N)OC [GW-2580] + CC(=O)Nc1cccc(-n2c(=O)n(C3CC3)c(=O)c3c(Nc4ccc(I)cc4F)n(C)c(=O)c(C)c32)c1 [Trametinib] (partner 0.02 µM)
The method in brief:
as §1

Turning to UMC-11, the relative viability came out at 1.02 with GW-2580 + Linsitinib (first compound 0.08 µM); 1.15 with GW-2580 + Linsitinib (first compound 0.8 µM); 0.998 with GW-2580 + Linsitinib (first compound 2.53 µM); 1.02 with GW-2580 + Linsitinib (first compound 8 µM); 0.338 in the assay with Fedratinib + Phenformin (first compound 0.1 µM); 0.272 with Fedratinib + Phenformin (first compound 0.3162 µM). The relative viability with Fedratinib + Phenformin (first compound 1 µM) was 0.359; with Fedratinib + Alpelisib (first compound 0.1 µM) it was 0.985; with Fedratinib + Alpelisib (first compound 0.3162 µM), 0.876; with Fedratinib + Alpelisib (first compound 1 µM) it was 0.95; with GW-2580 + Olaparib (first compound 0.08 µM), 0.358; with GW-2580 + Olaparib (first compound 0.8 µM) it was 0.375. The relative viability is 0.464 with GW-2580 + Olaparib (first compound 2.53 µM); 0.436 with GW-2580 + Olaparib (first compound 8 µM); 0.826 with GW-2580 + Trametinib (first compound 0.08 µM); 0.866 in the assay with GW-2580 + Trametinib (first compound 0.8 µM); 0.574 with GW-2580 + Trametinib (first compound 2.53 µM); 0.817 with GW-2580 + Trametinib (first compound 8 µM).
